From PMC5374710, “Discovery of the first dual GSK3β inhibitor/Nrf2 inducer. A new multitarget therapeutic strategy for Alzheimer’s disease” (Scientific Reports, 2017)
Like-named read-outs stand apart in the source and are kept apart here.

Assays:
SH-SY5Y cells [1] = details: human, 24 h
Procedure: (§4) Viability was measured as MTT reduction in presence of increasing concentrations of derivatives. Values are expressed as LD50 calculated from dose-response curves of four different concentrations.
(§5) Cells were cultured in 48-well (SH-SY5Y, 1x10^5 cells per well) or 96-well plates (HepG2, 1x10^5 cells per well) for 24 h. […] Control cells were incubated with the same concentration of DMSO (0.1 % final concentration) without any drug.

HepG2 cells [2] = details: human, 24 h
Procedure: (§6) Thus, it is relevant to study the potential neurotoxicity and hepatotoxicity of the novel dual GSK3β inhibitors-Nrf2 inducers 5a–t.
as §4
(§7) HepG2 cells were cultured according to supplier indications in EMEM supplemented with 10 % heat-inactivated FBS, 100 µg/mL streptomycin and 100 units/mL penicillin. Cells were maintained at 37 °C in humidified atmosphere of 95 % air and 5 % CO2. For experimental procedures, cells were cultured in 96-well plates at density of 1x10^5 cells/well. Treatments were performed in 1% FBS medium unless other concentration was specified. Cells were used from 4 up to 13 passages.
as §5

Nrf2 = assay: Nrf2-dependent luciferase reporter assay in AREc32 cell line; format: cell-based; details: AREc32 cells; for EC50: Arec32, 24 h, read-out: CD (concentration required to double the luciferase reporter activity); for Nrf2 induction (luciferase activity), result in words: 24 h, compound 7 also at 60 and 100 μM
Procedure: Thereafter, we tested the ability of the compounds to induce the Nrf2 transcription factor. We used an Nrf2-dependent luciferase reporter assay in the AREc32 cell line[45]. Cells were cultured for 24 h and then treated with increasing concentrations of compounds 5a–t (0.3, 3, 10 and 30 μM), including the known inducer sulforaphane, containing an isothiocyanate motive as positive control.
AREc32 cells were plated in 96-well white plates (2 × 10^4 cells/well). After 24 h, cells were incubated with increasing concentrations of each compound in duplicate for 24 h. AREc32 cells express constitutively the plasmid pGL-8xARE that implements 8 copies of the EpRE sequences followed by luciferase reporter gen. Therefore, Nrf2 induction is related to the activation of EpRE sequences, expressing luciferase at the same extent as EpRE sequences are activated. The Luciferase Assay System (Promega E1500), was used according to provider protocol and luminescence was quantified in an Orion II microplate luminometer (Berthold, Germany). Fold induction of luciferase activity was normalized to basal conditions. Data are expressed as CD values, expressing the concentration required to double the luciferase activity. CD values are calculated from dose-response curves generated from fold induction of control conditions vs. inducer concentration and fitted by non-linear regression and data interpolated to 2-fold induction concentration.
Breast cancer cells stably transfected to express luciferase after EpRE sequences MCF-7/AREc32 named AREc32, were kindly provided by Dr. C. Roland Wolf (University of Dundee, UK).^14 AREc32 cells were maintained in DMEM with high glucose-glutamax, supplemented with 10 % FBS, 1 % penicillin-streptomycin (10,000 units), and geneticin (0.8 mg/ml G418) at 37 °C and in a 5 % CO2- air atmosphere.^14
AREc32 cells are constitutively transfected with the pGL-8xARE luciferase reporter gene, inserted after EpRE sequences. Thus, Nrf2 translocation to the nucleus induces the activation of the EpRE sequences, expressing their target phase II antioxidant genes, and expressing luciferase at the same extent.^15 AREc32 cells were plated in 96-well white plates (2X10^4 cells/well). After 24 h, cells were incubated with increasing concentrations of each compound in duplicate for 24 h (dissolved in DMSO to give a final 0.1 % vol/vol concentration of vehicle). Each plate included non-treated cells as basal luciferase expression and tBHQ (10 µM) as positive control. TBHQ is a potent Nrf2 inducer used as control in the development of the AREc32 cells.^14 Transfected clones are selected using G418. AREc32 cells express constitutively the plasmid pGL-8xARE that implements 8 copies of the EpRE sequences followed by a luciferase reporter gene. Therefore, the induction of Nrf2 is proportional to the activation of EpRE sequences, expressing luciferase at the same extent as EpRE sequences are activated. Luciferase production is then assessed by a bioluminescence assay. The Luciferase Assay System (Promega E1500), was used according to the Promega protocol and luminescence was quantified in an Orion II microplate luminometer (Berthold, Germany). Relative Light Units (RLU) were recorded for the contents of each well. Fold induction of luciferase activity was calculated by dividing the RLU obtained for the tests wells for each treatment by the average RLU obtained for the basal conditions. Data are expressed as CD values, expressing the concentration required to double the basal luciferase activity, used to quantify the Nrf2 induction potency. CD values are calculated from dose-response curves generated from fold induction of control conditions vs. inducer concentration and fitted by non-linear regression and data interpolated to value the 2-fold induction concentration, using GraphPad Prism software (San Diego, CA, USA).

primary rat glial cells [3] = assay: Nitrite production in LPS-stimulated primary glial cultures (Griess); format: cell-based; details: Glial cell, 24 h pre-incubation, 18 h co-incubation with LPS 1 μg/mL, read-out: IC50 nitrite reduction
From the text: (§1) Therefore, we envisaged the study of compounds 5a–t as potential anti-inflammatory agents. We used primary rat glial cells treated with lipopolysaccharide (LPS) to induce the production of nitrites and ROS as a model of glial activation. Nitrite production is directly proportional to the expression of the iNOS, that is over-expressed when LPS activates glial cells. ROS production is proportional to NOX activation after stimulation with LPS. Results are summarized in Table 2 as IC50s of nitrite production reduction and ROS production reduction. We have included sulforaphane as control in all experiments (see the Supporting Information).
Glial cells were pre-incubated with increasing concentrations of compounds for 24 hours. Then, treatments were removed and cells were incubated with LPS (1 μg/mL) alone or in presence of each compound at the desired concentration. Nitrite production was assessed 18 hours later by modified Griess assay. Briefly, samples (150 μl) were mixed with dapsone (75 μl) and NEDA (75 μl), and the mixture was incubated at room temperature for 5 min. Light absorption was measured at 550 nm in a microplate reader (Labtech, Offenburg, Germany). All data were normalized to basal nitrite production, considering this value as 100% of nitrite production. IC50 values were calculated from dose-response curves represented as percentage of nitrite production reduction induced by the different concentrations of each compound.
(§2) Mixed glial cultures were obtained from cerebral cortex of 2-5 day-old Sprague-Dawley rats. After removal of blood vessels and meninges, the forebrains were dissociated in DMEM/F12 medium. After mechanical dissociation, cells were plated (3x10^5 cells/ml) in DMEM/F12 medium with 20% fetal bovine serum (FBS) and 1 % penicillin/streptomycin (10,000 units), at 37 °C and in a 5 % CO2-supplemented air atmosphere. After 5 days, medium was substituted by DMEM/F12 medium with 10 % FBS. Cells were cultured for 7-10 days before treatment.
Primary rat glial cells were treated with compounds 5a-t at increasing concentrations (3, 10, 30 and 60 µM) during 24 h. Thereafter, treatments were removed and glial cells were co-incubated with increasing concentrations of each compound and LPS (1 µg/mL) for 18 h more. At the end of this period, supernatant was collected and the presence of nitrites was analyzed by the Griess method with modifications.^20 Each plate included non-treated cells as basal nitrite production, sulforaphane (SFN, 10 µM) as positive control. Briefly, samples (150 µl) were mixed with DAPSONE (75 µl) and NEDA (75 µl), and the mixture was incubated at room temperature for 5 min. Light absorption was measured at 550 nm in a microplate reader (Labtech, Offenburg, Germany). All data were normalized to basal nitrite production, considering this value as 100% of nitrite production. EC50 values were calculated from dose-response curves represented as percentage of nitrite production reduction induced by the different concentrations of each compound. Concentration response curves were fitted by non-linear regression analysis of individual concentration-response curves using GraphPad Prism software (San Diego, CA, USA). EC50 values are expressed as mean ± SEM of four different experiments in triplicate.

primary rat glial cells [4] = assay: ROS production in LPS-stimulated primary glial cultures (H2DCFDA); format: cell-based; details: Glial cell, 24 h pre-incubation, 18 h co-incubation with LPS, 3 h with fluorescent dye, read-out: IC50 ROS reduction
From the text: as §1
Besides the increase in nitrite production, it is well known that LPS stimulation of microglia also induces the activation of NOX, which induces superoxide free radical production. In fact, this mechanism is synergistic with the expression of iNOS and the production of nitrites. In this respect, there is a body of evidence showing that NOX activation is a major contributor to ROS oxidative stress and neuronal death in AD[57][58]. […] In general, potency to reduce ROS production increased from ortho to para and meta as observed above.
(§3) Primary glial cells were cultured in bottom transparent 96-well black plates following standard protocol. Cells were pre-incubated with the corresponding compound at the selected concentrations, for 24 hours, and therafter, co-incubated with the corresponding compound and LPS (1 μM) during 18 h more. Then, treatments were removed and cells were loaded with the fluorescent probe 2′,7′-dichlorodihydrofluorescein diacetate (H2DCFDA) (10 μM) for 45 minutes in serum free glial culture medium. All experiments included cells treated with culture medium alone (basal). Cells were washed twice with culture medium and fluorescence intensity was recorded in a Fluostar Optima multiwall pate reader (BMG Labtech, Offenburg, Germany) at 485/520 nm as excitation and emission wavelengths respectively, each hour, during 3 hours period. Data were normalized with respect to basal conditions that were considered as 100%.
as §3, with “µM)” for “μM)”, “2',7'-dichlorodihydrofluorescein” for “2′,7′-dichlorodihydrofluorescein”
as §2

GSK3β [5] = target: T1, GSK3β (Homo sapiens, UniProt P49841); assay: GSK3β inhibition, luminescence Kinase-Glo assay; format: biochemical; details: for Ki: calculated from IC50 by Cheng-Prusoff equation, Km ATP 2.345 µM, read-out: Ki (apparent equilibrium dissociation constant); for IC50: four concentrations 0.1, 1, 10, 30 μM, ATP 1 μM, 1 h
T1 construct: purchased Promega V1991
Procedure: GSK3β inhibitory activity was evaluated using the method developed by Baki[66], with modifications. Compounds were dissolved in assay buffer, containing 40 mM Tris (pH 7.5), 20 mM MgCl2, 0.1 mg/ml BSA (bovine serum albumin) and 50 μM dithiothreitol (DTT) at the desired concentrations. Firstly, 10 μl of enzyme (10 ng) and 10 μl of each compound were mixed for 30 min. Then, 20 μl of a mixture of ATP (1 μM) and GSK3β peptidic substrate were added to each well. The mixture was incubated for 60 min at 30 °C. Thereafter, the remaining ATP concentration was measured with the Kinase-Glo system following instructions from the supplier. Luminescence was measured in an Orion II microplate luminometer (Berthold, Germany) as relative light units (RLU). […] IC50 values were calculated by non-linear regression analysis of individual concentration-response curves using GraphPad Prism 5.0 software (San Diego, CA, USA).
The ability of the compounds to inhibit GSK3β was evaluated using the method developed by Baki^9 with some modifications. The tested compounds were dissolved in assay buffer, containing 40 mM Tris (pH 7.5), 20 mM MgCl2, 0.1 mg/ml BSA (bovine serum albumin) and 50 µM dithiothreitol (DTT), to achieve final reaction concentrations of 0.1, 1, 10 and 30 µM. […] The GSK3β inhibition assay was performed in white 96-well plates, in duplicates. Firstly, 10 µl of enzyme (10 ng) were added to each well, followed by 10 µl of the compounds at the desired concentration. After 30 minutes, 20 µl of a mixture of ATP and GSK3β peptidic substrate were added to each well, achieving a final concentration of 1 µM of ATP and 25 of µM peptidic substrate. The mixture was incubated at 30 °C for 60 minutes. Once the reaction was finished, the remaining ATP concentration was measured by adding 40 µl/well of Kinase-Glo reagent. The luminescence was measured in an Orion II microplate luminometer (Berthold, Germany) as relative light units (RLU). The luminescence recorded is proportional to the amount of ATP present in each well.
Apparent Ki for each compound were calculated from GSK3β Km value for ATP, applying the Cheng-Prusoff equation^10,11 in its simplified form: Ki = IC50/(1+([S]/Km)), in which S refers to the ATP concentration and Km is the Michaelis constant of the substrate for GSK3β.

SH-SY5Y cells [6] = assay: Neuroprotection against okadaic acid (tau hyperphosphorylation), MTT; format: cell-based; details: 1 μM, 24 h pre-incubation, 18 h co-incubation with OA 20 nM
[7] = target: T2, Nrf2-Keap1 protein-protein interaction (Homo sapiens, UniProt Q14145); assay: Fluorescence polarization assay of Nrf2-Keap1 interaction; format: binding; details: ligand concentration 10 µM; read-out: FP % Inhibition (± SEM)
T2 construct: a solution of the Keap1 Kelch domain (200 nM)
Procedure: Data are presented the means ± SEM of two experiments performed in triplicate.
The FP assay was carried out as previously described.^16,17 Inhibitors (10 µM) were plated onto untreated Corning® black 96 well plates containing a solution of the Keap1 Kelch domain (200 nM) and the fluorescent peptide FITC-β-DEETGEF-OH (1 nM) in Dulbecco’s Phosphate Buffered Saline (DPBS) at pH 7.4 (11% final DMSO concentration, 100 µL final volume). Following a 30 min incubation under slow agitation and away from light at room temperature, the plates were transferred to a PHERAstar microplate reader (BMG Labtech, Ortenberg, Germany) and the fluorescence polarisation was recorded. All measurements were recorded in triplicate.

Keap1 Kelch domain = target: T3, Keap1 Kelch domain (Homo sapiens, UniProt Q14145); assay: Differential scanning fluorimetry assay; format: binding; details: ligand concentration 10 µM
T3 construct: A solution of the Keap1 Kelch domain protein (5 µM)
Procedure: A solution of the Keap1 Kelch domain protein (5 µM) and detection dye SYPRO® orange (5X) in DPBS at pH 7.4 was added onto a qPCR plate containing the compound inhibitor (10 µM, 10% final DMSO concentration, 40 µL final volume). The plate was sealed using an optical foil seal and covered with aluminum foil to protect the dye from light. The plate was then transferred to a plate centrifuge and spun down briefly (200 G, 1 min, room temperature) to remove any bubbles and collect the solution at the bottom of the wells. Following a 30 min incubation at room temperature, the plate was placed into a 7500 Real time PCR machine and the fluorescence intensity at an excitation of 465 nm and emission of 580 nm was recorded during a temperature scan from 25 °C to 95 °C with a temperature ramping rate of 1 °C/min. All measurements were run in triplicate. Life Technologies software was used to set up the run on 7500 Software v.2.0.0 and the initial data processing was carried out on Protein thermal shift solution software. The raw data were exported to MS Excel and analysis was performed using a custom script provided by the Structural Genomics Consortium Oxford.^18 The temperature range over which the protein unfolding occurred was selected and the maximum and minimum (at temperatures below the maximum intensity) fluorescence intensities within this range were determined. The processed data were fitted to the Boltzmann equation by non-linear regression using the Origin Pro software.

HepG2 cells [8] = assay: Hepatotoxicity in HepG2 cell line (MTT); details: 24 h
Procedure: as §6, §4, §7, §5

SH-SY5Y cells [9] = assay: Cytotoxicity in SH-SY5Y neuroblastoma cell line (MTT); details: 24 h
Procedure: as §4, §5

GSK3β [10] = target: T1, GSK3β; details: cited from earlier work

T1 sequence (P49841 whole entry): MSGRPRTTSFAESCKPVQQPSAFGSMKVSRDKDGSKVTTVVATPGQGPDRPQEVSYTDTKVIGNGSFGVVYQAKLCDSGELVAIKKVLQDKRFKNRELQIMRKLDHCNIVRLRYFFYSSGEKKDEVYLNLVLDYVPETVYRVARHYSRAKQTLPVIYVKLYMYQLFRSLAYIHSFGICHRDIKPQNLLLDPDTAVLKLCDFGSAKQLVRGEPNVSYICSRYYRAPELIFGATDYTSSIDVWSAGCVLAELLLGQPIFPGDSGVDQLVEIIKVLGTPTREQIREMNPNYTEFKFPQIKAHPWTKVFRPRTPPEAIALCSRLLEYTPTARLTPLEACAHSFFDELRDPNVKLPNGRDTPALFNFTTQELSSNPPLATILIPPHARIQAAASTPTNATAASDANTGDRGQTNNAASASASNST
T3 sequence (Q14145 321-609 limits assumed): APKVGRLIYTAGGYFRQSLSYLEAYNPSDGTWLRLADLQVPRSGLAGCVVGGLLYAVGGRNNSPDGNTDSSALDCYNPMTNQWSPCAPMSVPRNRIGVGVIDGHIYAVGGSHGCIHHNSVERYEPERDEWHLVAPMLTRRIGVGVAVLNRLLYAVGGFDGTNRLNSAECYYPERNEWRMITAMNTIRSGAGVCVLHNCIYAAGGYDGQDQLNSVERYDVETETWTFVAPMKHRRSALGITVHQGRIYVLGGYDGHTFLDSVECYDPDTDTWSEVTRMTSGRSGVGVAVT
T2 sequence (Q14145 321-609 limits assumed): as above

Ki (GSK3β [5]) | IC50 (GSK3β [5]) | Compound | SH-SY5Y LD50 (SH-SY5Y cells [1]) | HepG2 LD50 (HepG2 cells [2]) | EC50 (Nrf2) | IC50 (primary rat glial cells [3]) | IC50 (primary rat glial cells [4]) | Nrf2 induction (luciferase activity), result in words (Nrf2) | other results
 |  | COc1ccc2[nH]cc(CCNC(C)=O)c2c1 [Melatonin] | > 100 µM | > 100 µM |  |  |  |  | 
 |  | C[S+]([O-])CCCCN=C=S (stereo not shown) [Sulforaphane] |  |  | 0.54 ± 0.07 µM | 1.4 ± 0.3 µM | 2.84 ± 0.55 µM |  | 
 |  | Cn1cc(C2=C(c3ccc(Cl)cc3Cl)C(=O)NC2=O)c2ccccc21 [SB216763, reference compound] | > 100 µM | > 100 µM | > 30 µM |  |  | inability of the GSK3β inhibitor SB216763 to induce Nrf2 transcriptional activity | 
5.8 µM | 8.28 ± 0.7 µM | Cc1[nH]nc2c1C(c1ccncc1)C(C#N)=C(N)O2 (stereo not shown) [Compound 5t, 6-Amino-3-methyl-4-(pyridin-4-yl)-2,4-dihydropyrano[2,3-c]pyrazole-5-carbonitrile] |  |  |  | 28.8 ± 3.61 µM | 37.8 ± 1.17 µM |  | Percentage of protection against okadaic acid toxicity (SH-SY5Y cells [6]): over 50%; inhibition at 10 µM [7]: 1.24 ± 3.22%; ΔTm at 10 µM (Keap1 Kelch domain): -0.53 ± 0.28 °C; HepG2 LD50 (HepG2 cells [8]): > 100 µM; SH-SY5Y LD50 (SH-SY5Y cells [9]): > 100 µM
 |  | N#Cc1c(N)nc2[nH]nc(N)c2c1-c1ccccc1 [Compound 2] |  |  |  |  |  |  | IC50 (GSK3β [10]): 1.5 µM
13.1 µM | 18.6 ± 0.4 µM | Cc1[nH]nc2c1C(c1ccccc1)C(C#N)=C(N)N2 (stereo not shown) [Compound 7, 6-amino-3-methyl-4-phenyl-4,7-dihydro-2H-pyrazolo[3,4-b]pyridine-5-carbonitrile] |  |  |  |  |  | completely unable to induce Nrf2 | 
